From patent US6362188B1, “Farnesyl protein transferase inhibitors” (Schering Corporation, priority 1998, dated 2002) come the findings set out here.

One data set concerns Human tumor cells. The data set can be described thus: Soft Agar Assay (anchorage-independent growth). Type of data set: cell-based. The following applies: colony outgrowth in soft agar, stated as a range for the group. An outline of the steps:
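Tumor cells suspended in 0.3% agarose over a 0.6% agarose base, both layers containing the same farnesyl transferase inhibitor concentration. Incubated 10-16 days at 37° C, 5% CO2; colonies stained with MTT (1 mg/mL in PBS) and counted, IC50 determined.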

In turn, `Cc1cn(C[C@H]2CCCN(C(=O)[C@H]3CN([C@H]4c5ccc(Cl)cc5CCc5cc(F)cnc54)CCN3C(=O)OC(C)(C)C)C2)cn1` [Example 261] showed a melting point of 115 to 118 °C. Besides, in the data set with Human tumor cells, the half-inhibitory concentration (IC50) fell in the range of 0.05 to 30 nM.
In the same order, the values of `CC(C)(C)NC(=O)N1CCN([C@@H]2c3ccc(Cl)cc3CCc3cc(Br)cnc32)C[C@@H]1C(=O)N1CCC[C@@H](Cn2ccnc2)C1` [Example 16] are 148 to 153 °C and 0.5 to 30 nM.
`Cc1cn(CC2CCCN(C(=O)C3CN(C4c5ccc(Cl)cc5CCc5cccnc54)CCN3C(=O)OC(C)(C)C)C2)cn1` (stereo not drawn) [Example 28] had a melting point of 115 to 132 °C. The same compound showed an IC50 in the data set with Human tumor cells of 0.5 to 30 nM.
In the case of `Cc1cn(C[C@H]2CCCN(C(=O)[C@H]3CN([C@@H]4c5ccccc5CCc5cc(Cl)cnc54)CCN3C(=O)OC3CCCCC3)C2)cn1` [Example 322], the melting point lay in the range of 117 to 125 °C. The compound also yielded an IC50 in the data set on Human tumor cells of 0.05 to 30 nM.
Compound `Cc1cn(C[C@@H]2CCCN(C(=O)[C@H]3CN([C@H]4c5ccccc5CCc5cc(Br)cnc54)CCN3C(=O)OC3CCCCC3)C2)cn1` [Example 351] came in with a melting point of 120 to 124 °C. Besides, the IC50 in the data set with Human tumor cells lay in the range of 0.05 to 30 nM.
For `Cc1cn(C[C@@H]2CCCN(C(=O)[C@H]3CN([C@@H]4c5ccccc5CCc5cc(Cl)cnc54)CCN3C(=O)OC3CCCCC3)C2)cn1` [Example 320], in that order: 115 to 120 °C and 0.05 to 30 nM.
In the same order, the values of `CC(C)OC(=O)N1CCN(C2c3ccc(Cl)cc3CCc3cccnc32)CC1C(=O)N1CCCC(Oc2cccnc2)C1` (stereo not drawn) [41(C)] are 104 to 108 °C and 0.05 to 30 nM.
Consider `Cc1cn(CC2CCCN2C(=O)C2CN(C3c4ccc(Cl)cc4CCc4cccnc43)CCN2C(=O)OC(C)(C)C)cn1` (stereo not drawn) [35(F)], for which the melting point fell in the range of 115 to 120 °C. Besides, the IC50 with Human tumor cells was 0.05 to 30 nM.
Take `Cc1cn(C[C@@H]2CCCN(C(=O)[C@H]3CN([C@H]4c5ccc(Cl)cc5CCc5cc(Br)cnc54)CCN3C(=O)Cc3ccc(F)cc3)C2)cn1` [Example 197]: the melting point fell in the range of 105 to 110 °C. This compound also returned an IC50 with Human tumor cells of 0.05 to 30 nM.
The compound `Cc1nccn1CC1CCCN(C(=O)C2CN(C3c4ccc(Cl)cc4CCc4cccnc43)CCN2C(=O)OC2CCCCC2)C1` (single isomer, unassigned) [Example 44] registered a melting point of 112 to 135 °C. This compound also returned an IC50 with Human tumor cells of 0.5 to 30 nM.
The compound `Cc1nccn1CC1CCCN(C(=O)C2CN(C3c4ccc(Cl)cc4CCc4cc(Br)cnc43)CCN2C(=O)OC(C)(C)C)C1` (stereo not drawn) [Example 3] came in with a melting point of 126 to 131 °C. Further, the IC50 with Human tumor cells is 0.5 to 30 nM.
Turning to `CC(C)(C)OC(=O)N1CCN([C@H]2c3ccc(Cl)cc3CCc3cc(Br)cnc32)C[C@@H]1C(=O)N1CCC[C@H](Cn2ccnc2)C1` [Example 11], the melting point is 122 to 127 °C. The compound further returned an IC50 in the data set on Human tumor cells of 0.5 to 30 nM.
In turn, `CC(C)(C)OC(=O)N1CCN([C@@H]2c3ccc(Cl)cc3CCc3cc(Br)cnc32)C[C@@H]1C(=O)N1CCC[C@H](Cn2ccnc2)C1` [Example 10] showed a melting point of 130 to 134 °C. In the data set on Human tumor cells, this compound had an IC50 of 0.5 to 30 nM.
The compound `Cc1cn(C[C@H]2CCCN(C(=O)[C@H]3CN([C@H]4c5ccc(Cl)cc5CCc5cc(Cl)cnc54)CCN3C(=O)OC(C)(C)C)C2)cn1` [Example 229] gave a melting point of 102 to 113 °C. Besides, the IC50 in the data set with Human tumor cells lay in the range of 0.05 to 30 nM.
With `CC(C)(C)OC(=O)N1CCN([C@H]2c3ccc(Cl)cc3CCc3cc(Br)cnc32)C[C@@H]1C(=O)N1CCC[C@@H](Cn2ccnc2)C1` [Example 13], the melting point was in the range of 127 to 130 °C. For the same compound, the IC50 with Human tumor cells lay in the range of 0.5 to 30 nM.
For `Cc1cn(C[C@H]2CCCN(C(=O)[C@H]3CN([C@H]4c5ccc(Cl)cc5CCc5cc(Cl)cnc54)CCN3C(=O)OC3CCCCC3)C2)cn1` [Example 257], the melting point fell in the range of 115 to 128 °C. In the data set with Human tumor cells, this compound had an IC50 of 0.05 to 30 nM.
In the same order, the values of `Cc1cn(C[C@H]2CCCN(C(=O)[C@H]3CN([C@@H]4c5ccc(Cl)cc5CCc5cc(F)cnc54)CCN3C(=O)OC(C)(C)C)C2)cn1` [Example 262] are 122 to 126 °C and 0.05 to 30 nM.
`Cc1cn(C[C@H]2CCCN(C(=O)[C@H]3CN([C@@H]4c5ccc(Cl)cc5CCc5cc(Cl)cnc54)CCN3C(=O)OC3CCCCC3)C2)cn1` [Example 258] gave a melting point of 115 to 128 °C. This compound also displayed an IC50 in the data set on Human tumor cells of 0.05 to 30 nM.
For `Cc1cn(C[C@H]2CCCN(C(=O)[C@H]3CN([C@@H]4c5ccccc5CCc5cc(Cl)cnc54)CCN3C(=O)OC(C)(C)C)C2)cn1` [Example 294], in that order: 102 to 118 °C and 0.05 to 30 nM.
Regarding `Cn1cncc1CC1CCCN(C(=O)C2CN(C3c4ccc(Cl)cc4CCc4cccnc43)CCN2C(=O)OC2CCCCC2)C1` (stereo not drawn) [47(K)], the melting point is 101 to 123 °C. The IC50 in the data set with Human tumor cells is 0.05 to 30 nM.
Turning to `Cc1cn(CC2CCCN(C(=O)C3CN(C4c5ccc(Cl)cc5CCc5cc(Cl)cnc54)CCN3C(=O)OC(C)(C)C)C2)cn1` (stereo not drawn) [Example 230], the melting point was 121 to 127 °C. This compound showed an IC50 in the data set with Human tumor cells of 0.05 to 30 nM.
For `Cc1nccn1CC1CCCN(C(=O)C2CN(C3c4ccc(Cl)cc4CCc4cccnc43)CCN2C(=O)OC(C)C)C1` (single isomer, unassigned) [Example 38], in that order: 92 to 101 °C and 0.5 to 30 nM.
Compound `O=C([C@H]1CN([C@@H]2c3ccc(Cl)cc3CCc3cc(Br)cnc32)CCN1C(=O)OC1CCCCC1)N1CCC[C@@H](Cn2ccnc2)C1` [Example 15] came in with a melting point of 140 to 144 °C. The compound further had an IC50 in the data set on Human tumor cells of 0.5 to 30 nM.
The compound `Cc1cn(C[C@@H]2CCCN(C(=O)[C@H]3CN([C@H]4c5ccc(Cl)cc5CCc5cc(F)cnc54)CCN3C(=O)OC(C)(C)C)C2)cn1` [Example 259] displayed a melting point of 126 to 135 °C. The IC50 in the data set with Human tumor cells was 0.05 to 30 nM.
Regarding `CC(C)OC(=O)N1CCN([C@@H]2c3ccc(Cl)cc3CCc3cc(Br)cnc32)C[C@@H]1C(=O)N1CCC[C@@H](Cn2ccnc2)C1` [Example 14], the melting point lay in the range of 126 to 128 °C. In the data set with Human tumor cells, this compound came in with an IC50 of 0.5 to 30 nM.
Turning to `Cc1cn(C[C@@H]2CCCN(C(=O)[C@H]3CN([C@@H]4c5ccc(Cl)cc5CCc5cc(Cl)cnc54)CCN3C(=O)OC3CCCCC3)C2)cn1` [Example 256], the melting point was in the range of 122 to 128 °C. In addition, in the data set on Human tumor cells, the IC50 was in the range of 0.05 to 30 nM.
In the same order, the values of `Cc1cn(CC2CCCN(C(=O)C3CN(C4c5ccc(Cl)cc5CCc5cc(Br)cnc54)CCN3C(=O)OC(C)(C)C)C2)cn1` (stereo not drawn) [Example 4.1] are 114 to 121 °C and 0.5 to 30 nM.
For `CCc1cn(CC2CCCN(C(=O)C3CN(C4c5ccc(Cl)cc5CCc5cccnc54)CCN3C(=O)OC3CCCCC3)C2)cn1` (stereo not drawn) [47(D)], in that order: 66 to 68 °C and 0.05 to 30 nM.
Compound `Cc1cn(C[C@@H]2CCCN(C(=O)[C@H]3CN([C@H]4c5ccccc5CCc5cc(Br)cnc54)CCN3C(=O)OC(C)(C)C)C2)cn1` [Example 323] returned a melting point of 109 to 124 °C. In the data set with Human tumor cells, this compound yielded an IC50 of 0.05 to 30 nM.
In the same order, the values of `Cc1nccn1C[C@H]1CCCN(C(=O)[C@H]2CN([C@H]3c4ccc(Cl)cc4CCc4cccnc43)CCN2C(=O)NC(C)(C)C)C1` [Example 48] are 111 to 140 °C and 0.5 to 30 nM.
In the case of `Cc1cn(C[C@@H]2CCCN(C(=O)[C@H]3CN([C@@H]4c5ccc(Cl)cc5CCc5cc(F)cnc54)CCN3C(=O)OC3CCCCC3)C2)cn1` [Example 288], the melting point lay in the range of 128 to 134 °C. Besides, the IC50 in the data set on Human tumor cells was 0.05 to 30 nM.
`Cc1cn(CC2CCCN(C(=O)C3CN(C4c5ccccc5CCc5cc(Cl)cnc54)CCN3C(=O)OC(C)(C)C)C2)cn1` (stereo not drawn) [Example 292] returned a melting point of 95 to 105 °C. The IC50 in the data set on Human tumor cells was in the range of 0.05 to 30 nM.
In the same order, the values of `Cc1cn(C[C@@H]2CCCN(C(=O)[C@H]3CN([C@H]4c5ccccc5CCc5cc(Cl)cnc54)CCN3C(=O)OC3CCCCC3)C2)cn1` [Example 319] are 114 to 118 °C and 0.05 to 30 nM.
Regarding `O=C(C1CN(C2c3ccc(Cl)cc3CCc3cccnc32)CCN1C(=O)OC1CCCCC1)N1CCCC(Cc2cnc[nH]2)C1` (stereo not drawn) [47(I)], the melting point was 113 to 115 °C. The IC50 in the data set with Human tumor cells was 0.05 to 30 nM.
Regarding `Cc1cn(C[C@@H]2CCCN(C(=O)[C@H]3CN([C@@H]4c5ccc(Cl)cc5CCc5ccc[n+]([O-])c54)CCN3C(=O)OC3CCCCC3)C2)cn1` [Example 388], the melting point lay within 108 to 113 °C. The same compound yielded an IC50 in the data set on Human tumor cells of 0.05 to 30 nM.
In turn, `Cc1cn(C[C@@H]2CCCN(C(=O)[C@H]3CN([C@H]4c5ccc(Cl)cc5CCc5cccnc54)CCN3C(=O)OCC(C)(C)C)C2)cn1` [Example 411] returned a melting point of 103 to 115 °C. The compound further had an IC50 in the data set on Human tumor cells of 0.05 to 30 nM.
Compound `Cc1cn(C[C@H]2CCCN(C(=O)[C@H]3CN([C@@H]4c5ccc(Cl)cc5CCc5cc(F)cnc54)CCN3C(=O)OC3CCCCC3)C2)cn1` [Example 290] gave a melting point of 121 to 125 °C. For the same compound, in the data set with Human tumor cells, the IC50 was 0.05 to 30 nM.
In the same order, the values of `Cc1cn(CC2CCCN(C(=O)C3CN(C4c5ccccc5CCc5cc(Br)cnc54)CCN3C(=O)OC3CCCCC3)C2)cn1` (stereo not drawn) [Example 354] are 124 to 128 °C and 0.05 to 30 nM.
Turning to `Cc1cn(CC2CCCN(C(=O)C3CN(C4c5ccccc5CCc5cc(Cl)cnc54)CCN3C(=O)OC(C)(C)C)C2)cn1` (single isomer, unassigned) [Example 291], the melting point is 99 to 107 °C. Besides, the IC50 in the data set on Human tumor cells was 0.05 to 30 nM.
`CC(C)(C)OC(=O)N1CCN(C2c3ccc(Cl)cc3CCc3cccnc32)CC1C(=O)N1CCCC(Cn2ccnc2)C1` (stereo not drawn) [Example 24] showed a melting point of 115 to 126 °C. In the data set with Human tumor cells, this compound came in with an IC50 of 0.5 to 30 nM.
The compound `Cc1cn(C[C@@H]2CCCN(C(=O)[C@H]3CN([C@@H]4c5ccccc5CCc5cc(Br)cnc54)CCN3C(=O)OC(C)(C)C)C2)cn1` [Example 324] displayed a melting point of 102 to 119 °C. This compound also showed an IC50 in the data set on Human tumor cells of 0.05 to 30 nM.
In the same order, the values of `Cc1cn(C[C@H]2CCCN(C(=O)[C@H]3CN([C@H]4c5ccccc5CCc5cc(Cl)cnc54)CCN3C(=O)OC3CCCCC3)C2)cn1` [Example 321] are 112 to 121 °C and 0.05 to 30 nM.

What is called IC50 is the concentration at which inhibition is half-maximal. Read a high IC50 as weaker potency. For orientation: melting point means the temperature, or range, at which the solid turns liquid.
